In one experiment the target is T1, K-Ras G12V (Homo sapiens, UniProt P01116, G12V).
T1 construct: made in house; host or cells: E. coli, e.g. BL21 (DE3)
As to the kind of experiment: PPI-HTRF assay, K-Ras G12V / SOS1 interaction. It is filed as biochemical. Conditions: HTRF, K-Ras G12V; read-out: PPI-HTRF-5 nM (K-Ras G12V IC50). The method, boiled down: (§1)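 Equilibrium interaction of GST-tagged human K-Ras (wildtype or G12D/G12V/G12S mutant) with His-tagged hSOS1. Detection uses anti-GST-Eu(K) and anti-6His-XL665 in HEPES pH 7.4 buffer. Signal is read ≥10 min after mixing and the ratiometric HTRF signal is fitted for IC50.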
(TR-FRET usually uses a lanthanide donor and a delayed reading to cut background.)

The target of the next experiment is T2, K-Ras G12D (Homo sapiens, UniProt P01116, G12D).
T2 construct: made in house; host or cells: E. coli, e.g. BL21 (DE3)
In words: PPI-HTRF assay, K-Ras G12D / SOS1 interaction. It is filed as biochemical. Conditions: HTRF, K-Ras G12D; read-out: PPI-HTRF-5 nM (K-Ras G12D IC50). The method, boiled down:
as §1

The target of another experiment is T3, wildtype K-Ras (Homo sapiens, UniProt P01116).
T3 construct: made in house; host or cells: E. coli, e.g. BL21 (DE3)
In words: PPI-HTRF assay, wildtype K-Ras / SOS1 interaction. It is filed as biochemical. The note with it: HTRF, K-Ras wt; read-out: PPI-HTRF-5 nM (K-Ras wt IC50). The method, boiled down:
as §1

The subject of another experiment is GP2D cells. In words: Ras cellular assay, cell proliferation GP2D. It is filed as cell-based. The method, boiled down:
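Growth inhibition read by CellTiter-Glo luminescence roughly 5 days after compound addition, which followed overnight plating of G12D-mutant GP2D cells (e.g., 800 per well). Compounds were tested as a serial dilution (e.g., 9 points, 3-fold), with IC50 fitted by four-parameter model.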

Another experiment has as its target T4, K-Ras G12S (Homo sapiens, UniProt P01116, G12S).
T4 construct: made in house; host or cells: E. coli, e.g. BL21 (DE3)
As to the kind of experiment: PPI-HTRF assay, K-Ras G12S / SOS1 interaction. It is filed as biochemical. Conditions: read-out: PPI-HTRF-5 nM (K-Ras G12S IC50). The gist of the method: as §1

The next experiment deals with A549 cells. In words: Ras cellular assay, cell proliferation A549. It is filed as cell-based. Conditions: Homo sapiens. The procedure: (§2) For example, this assay can be also used to assess selective growth inhibition of a mutant Ras protein relative to a wildtype, or relative to a different mutant Ras protein.
A549 (ATCC CRL-185) and LS123 (ATCC CRL-255) cell lines comprise a G12S mutation and can be used to assess Ras cellular signaling in vitro, e.g., in response to treatment with a compound described herein. A549 culture medium is prepared with RPMI-1640 and 10% heat-inactivated FBS. LS123 culture medium is prepared with RPMI-1640 and 10% heat-inactivated FBS. A CellTiter-Glo (CTG) luminescent based assay (Promega) is used to assess growth of the cells, as a measurement of the ability of the compounds herein to inhibit Ras signaling in the cells. The cells (e.g., 800 per well) are seeded in their respective culture medium in standard tissue culture-treated 384-well format plates (Falcon #08-772-116) or ultra-low attachment surface 384-well format plates (S-Bio #MS-9384WZ). The day after plating, cells are treated with a dilution series (e.g., a 10 point, 3-fold dilution series) of the compounds herein (e.g., approximately 40 μL final volume per well). Cell viability can be monitored (e.g., approximately 6 days later) according to the manufacturer's recommended instructions, where CellTiter-Glo reagent is added (e.g., approximately 10 μL), vigorously mixed, covered, and placed on a plate shaker (e.g., approximately for 20 min) to ensure sufficient cell lysis prior to assessment of luminescent signal. The IC50 values are determined using the four parameter fit. The resulting IC50 value is a measurement of the ability of the test compound to reduce cell growth of Ras-driven cells (e.g., tumor cell lines) in vitro and/or in vivo.

Another experiment relates to SW620 cells. In words: Ras cellular assay, cell proliferation SW620. It is filed as cell-based. The note with it: Homo sapiens, SW-620.
From the text: as §2

Each structure is given as a SMILES string.

T1 sequence (P01116 1-188 isoform P01116-2 G12V): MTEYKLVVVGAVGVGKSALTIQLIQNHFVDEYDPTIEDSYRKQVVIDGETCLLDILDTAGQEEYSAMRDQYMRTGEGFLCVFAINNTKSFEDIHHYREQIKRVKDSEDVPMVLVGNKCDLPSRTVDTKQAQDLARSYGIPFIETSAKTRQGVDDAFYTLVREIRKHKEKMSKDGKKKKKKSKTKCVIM
T4 sequence (P01116 1-188 isoform P01116-2 G12S): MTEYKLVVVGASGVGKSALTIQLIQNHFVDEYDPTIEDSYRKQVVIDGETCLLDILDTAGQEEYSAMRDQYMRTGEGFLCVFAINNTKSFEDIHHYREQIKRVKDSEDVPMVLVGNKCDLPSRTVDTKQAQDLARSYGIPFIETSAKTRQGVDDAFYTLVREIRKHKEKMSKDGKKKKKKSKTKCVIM
T3 sequence (P01116 1-188 isoform P01116-2): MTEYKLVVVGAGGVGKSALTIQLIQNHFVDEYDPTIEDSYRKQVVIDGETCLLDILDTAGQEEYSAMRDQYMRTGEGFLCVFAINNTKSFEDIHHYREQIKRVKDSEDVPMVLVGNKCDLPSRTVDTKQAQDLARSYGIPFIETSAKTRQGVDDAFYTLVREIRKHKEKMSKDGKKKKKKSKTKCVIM
T2 sequence (P01116 1-188 isoform P01116-2 G12D): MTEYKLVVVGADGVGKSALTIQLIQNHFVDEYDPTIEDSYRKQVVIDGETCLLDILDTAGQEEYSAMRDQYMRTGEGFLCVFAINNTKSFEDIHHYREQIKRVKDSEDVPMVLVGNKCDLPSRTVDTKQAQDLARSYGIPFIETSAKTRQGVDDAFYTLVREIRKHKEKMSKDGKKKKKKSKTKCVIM

Consider `N#Cc1c(N)sc2c(F)ccc(-c3c(Cl)c4c5c(nc(OC[C@@]67CCCN6C[C@H](F)C7)nc5c3F)N3CC5(CCCC3CO4)CN(C(=O)C3CC3(F)F)C5)c12` (stereo partly drawn) [compound 155, 2-amino-4-(3-chloro-1′-(2,2-difluorocyclopropane-1-carbonyl)-1-fluoro-13-(((2R,7aS)-2-fluorotetrahydro-1H-pyrrolizin-7a(5H)-yl)methoxy)-5a,6,7,8-tetrahydro-5H,10H-spiro[azepino[2′,1′:3,4][1,4]oxazepino[5,6,7-de]quinazoline-9,3′-azetidin]-2-yl)-7-fluorobenzo[b]thiophene-3-carbonitrile], for which the IC50 at K-Ras G12V, on K-Ras G12D, at wildtype K-Ras, in the experiment on GP2D cells, on K-Ras G12S and with A549 cells was under 5 µM each time. Further, in the experiment with SW620 cells, the half-maximal inhibitory concentration (IC50) was under 5 µM.
Regarding `N#Cc1c(N)sc2c(F)ccc(-c3c(Cl)c4c5c(nc(OC[C@@]67CCCN6C[C@H](F)C7)nc5c3F)N3CCCC3CO4)c12` (stereo partly drawn) [compound 137, 2-amino-4-(6-chloro-4-fluoro-2-(((2R,7aS)-2-fluorotetrahydro-1H-pyrrolizin-7a(5H)-yl)methoxy)-8a,9,10,11-tetrahydro-8H-pyrrolo[2′,1′:3,4][1,4]oxazepino[5,6,7-de]quinazolin-5-yl)-7-fluorobenzo[b]thiophene-3-carbonitrile], the IC50 on K-Ras G12V, at K-Ras G12D, on wildtype K-Ras, in the experiment with GP2D cells, at K-Ras G12S and in the experiment on A549 cells was under 5 µM in each case. Moreover, the IC50 with SW620 cells is under 5 µM.
Take `CC(=O)N1CC2Oc3c(Cl)c(-c4ccc(F)c5sc(N)c(C#N)c45)c(F)c4nc(OC[C@@]56CCCN5C[C@H](F)C6)nc(c34)N(C)C2C1` (stereo partly drawn) [compound 172, 4-(9-acetyl-6-chloro-4-fluoro-2-(((2R,7aS)-2-fluorotetrahydro-1H-pyrrolizin-7a(5H)-yl)methoxy)-11-methyl-7a,8,9,10,10a,11-hexahydropyrrolo[3′,4′:2,3][1,4]oxazepino [5,6,7-de]quinazolin-5-yl)-2-amino-7-fluorobenzo[b]thiophene-3-carbonitrile]: the IC50 is under 5 µM on K-Ras G12V; under 5 µM at K-Ras G12D; under 5 µM at wildtype K-Ras; over 5 µM in the experiment with GP2D cells; under 5 µM on K-Ras G12S; over 5 µM in the experiment with A549 cells. The molecule further had an IC50 with SW620 cells of over 5 µM.
Turning to `N#CCC1CCC2COc3c(Cl)c(-c4ccc(F)c5sc(N)c(C#N)c45)c(F)c4nc(OC[C@@]56CCCN5C[C@H](F)C6)nc(c34)N12` (stereo partly drawn) [compound 107, 2-amino-4-(6-chloro-11-(cyanomethyl)-4-fluoro-2-(((2R,7aS)-2-fluorotetrahydro-1H-pyrrolizin-7a(5H)-yl)methoxy)-8a,9,10,11-tetrahydro-8H-pyrrolo[2′,1′:3,4][1,4]oxazepino[5,6,7-de]quinazolin-5-yl)-7-fluorobenzo[b]thiophene-3-carbonitrile], the IC50 on K-Ras G12V, at K-Ras G12D, at wildtype K-Ras, with GP2D cells, at K-Ras G12S and in the experiment with A549 cells was under 5 µM throughout. For the same molecule, the IC50 in the experiment on SW620 cells was under 5 µM.
As for `COC[C@H]1C[C@H]2COc3c(Cl)c(-c4ccc(F)c5sc(N)c(C#N)c45)c(F)c4nc(OC[C@@]56CCCN5C[C@H](F)C6)nc(c34)N21` [compound 173, 2-amino-4-(9-chloro-7-fluoro-5-(((2R,7aS)-2-fluorotetrahydro-1H-pyrrolizin-7a(5H)-yl)methoxy)-2-(methoxymethyl)-1,2,11,11a-tetrahydroazeto[2′,1′:3,4][1,4]-oxazepino[5,6,7-de]quinazolin-8-yl)-7-fluorobenzo[b]thiophene-3-carbonitrile], the half-inhibitory concentration (IC50) on K-Ras G12V, on K-Ras G12D, at wildtype K-Ras, in the experiment on GP2D cells, on K-Ras G12S and in the experiment on A549 cells was under 5 µM throughout. The IC50 in the experiment on SW620 cells is under 5 µM.
Regarding `CN1c2nc(OC[C@@]34CCCN3C[C@H](F)C4)nc3c(F)c(-c4ccc(F)c5sc(N)c(C#N)c45)c(Cl)c(c23)OC2CNCC21` (stereo partly drawn) [compound 214, 2-amino-4-(6-chloro-4-fluoro-2-(((2R,7aS)-2-fluorotetrahydro-1H-pyrrolizin-7a(5H)-yl)methoxy)-11-methyl-7a,8,9,10,10a,11-hexahydropyrrolo[3′,4′:2,3][1,4]oxazepino [5,6,7-de]quinazolin-5-yl)-7-fluorobenzo[b]thiophene-3-carbonitrile], the concentration for half-maximal inhibition (IC50) is under 5 µM on K-Ras G12V; under 5 µM at K-Ras G12D; under 5 µM on wildtype K-Ras; over 5 µM in the experiment on GP2D cells; under 5 µM on K-Ras G12S; over 5 µM in the experiment with A549 cells. The same molecule showed an IC50 with SW620 cells of over 5 µM.
Regarding `N#Cc1c(N)sc2c(F)ccc(-c3c(Cl)c4c5c(nc(OC[C@@]67CCCN6C[C@H](F)C7)nc5c3F)N3CC(COC(F)F)CCC3CO4)c12` (stereo partly drawn) [compound 154, 2-amino-4-(6-chloro-11-((difluoromethoxy)methyl)-4-fluoro-2-(((2R,7aS)-2-fluorotetrahydro-1H-pyrrolizin-7a(5H)-yl)methoxy)-8,8a,9,10,11,12-hexahydropyrido[2′,1′:3,4][1,4]oxazepino [5,6,7-de]quinazolin-5-yl)-7-fluorobenzo[b]thiophene-3-carbonitrile], the half-inhibitory concentration (IC50) on K-Ras G12V, at K-Ras G12D, on wildtype K-Ras, in the experiment with GP2D cells, on K-Ras G12S and in the experiment with A549 cells was under 5 µM in each case. In the experiment with SW620 cells, this molecule yielded an IC50 of under 5 µM.
On to `CCN1c2nc(OC[C@@]34CCCN3C[C@H](F)C4)nc3c(F)c(-c4ccc(F)c5sc(N)c(C#N)c45)c(Cl)c(c23)OCC2COCC21` (stereo partly drawn) [compound 186, 2-amino-4-(6-chloro-12-ethyl-4-fluoro-2-(((2R,7aS)-2-fluorotetrahydro-1H-pyrrolizin-7a(5H)-yl)methoxy)-8a,9,11a,12-tetrahydro-8H,11H-furo[3′,4′:6,7][1,5]oxazocino[4,3,2-de]quinazolin-5-yl)-7-fluorobenzo[b]thiophene-3-carbonitrile], for which the IC50 on K-Ras G12V, at K-Ras G12D, at wildtype K-Ras, in the experiment with GP2D cells, at K-Ras G12S and in the experiment on A549 cells was under 5 µM in each case. Besides, in the experiment on SW620 cells, the concentration for half-maximal inhibition (IC50) was under 5 µM.
With `N#Cc1c(N)sc2c(F)ccc(-c3c(Cl)c4c5c(nc(OC[C@@]67CCCN6C[C@H](F)C7)nc5c3F)N(C3CC3)C3COCC3CO4)c12` (stereo partly drawn) [compound 125, 2-amino-4-(6-chloro-12-cyclopropyl-4-fluoro-2-(((2R,7aS)-2-fluorotetrahydro-1H-pyrrolizin-7a(5H)-yl)methoxy)-8a,9,11a,12-tetrahydro-8H,11H-furo[3′,4′:6,7][1,5]oxazocino[4,3,2-de]quinazolin-5-yl)-7-fluorobenzo[b]thiophene-3-carbonitrile], the concentration for half-maximal inhibition (IC50) on K-Ras G12V, on K-Ras G12D, at wildtype K-Ras, with GP2D cells, on K-Ras G12S and with A549 cells was under 5 µM throughout. The same molecule had a half-maximal inhibitory concentration (IC50) with SW620 cells of under 5 µM.

The term IC50 denotes the concentration that inhibits the measured activity by half.
